US10800789B2, “Antiviral compounds” (Gilead Pharmasset LLC, priority 2012, dated 2020)
Like-named read-outs stand apart in the source and are kept apart here.

Legend:
[1] = test system: stable HCV 1b RLuc replicon cells (dicistronic genotype 1b Con1 replicon); experiment: Renilla luciferase HCV replicon reporter assay, genotype 1b; format: cell-based; details: stable 1b Con1 RLuc replicon cells, 72 hours, read-out: 1b
Method: (§1) Evaluation of Cell-Based Anti-HCV Activity:
(§2) Antiviral potency (EC50) was determined using a Renilla luciferase (RLuc)-based HCV replicon reporter assay. To perform the assay for genotype 1 and 2a JFH-1, stable HCV 1a RLuc replicon cells (harboring a dicistronic genotype 1a H77 replicon that encodes a RLuc reporter), stable HCV 1b RLuc replicon cells (harboring a dicistronic genotype 1b Con1 replicon that encodes a RLuc reporter), or stable HCV 2a JFH-1 Rluc replicon cells (harboring a dicistronic genotype 2a JFH-1 replicon that encodes a RLuc reporter; with L31 present in NS5A) were dispensed into 384-well plates for EC50 assays. To perform the assay for genotype 2a (with M31 present in NS5A) or 2b, NS5A chimeric genotype 2a JFH-1 replicons that encodes a RLuc-Neo reporter and either genotype 2a J6 strain NS5A gene or genotype 2b MD2b-1 strain NS5A gene (both with M31 present) respectively, were either transiently transfected (t) into Huh-Lunet cells or were established as stably replicating replicon cells (s) is provided. Either cells were dispensed into 384-well plates for EC50 assays. To perform the assay for genotype 3 and 4, NS5A chimeric genotype 1b Con1 replicons that encodes a Pi-RLuc reporter and either genotype 3a S52 strain NS5A gene or genotype 4a ED43 strain NS5A gene respectively, were transiently transfected (t) into Huh-Lunet cells, which were subsequently dispensed into 384-well plates. Compounds were dissolved in DMSO at a concentration of 10 mM and diluted in DMSO either manually or using an automated pipeting instrument. Serially 3-fold diluted compounds were either manually mixed with cell culture media and added to the seeded cells or directly added to the cells using an automated instrument. DMSO was used as a negative (solvent; no inhibition) control, and the protease inhibitor ITMN-191 was included at a concentration>100×EC50 as a positive control. 72 hours later, cells were lysed and Renilla luciferase activity quantified as recommended by the manufacturer (Promega-Madison, Wis.). Non-linear regression was performed to calculate EC50 values.

[2] = test system: stable HCV 1a RLuc replicon cells (dicistronic genotype 1a H77 replicon); experiment: Renilla luciferase HCV replicon reporter assay, genotype 1a; format: cell-based; details: stable 1a H77 RLuc replicon cells
Method: as §1, §2

[3] = test system: stable HCV 2a JFH-1 Rluc replicon cells (L31 present in NS5A); experiment: Renilla luciferase HCV replicon reporter assay, genotype 2a JFH-1; format: cell-based
Method: as §1, §2

[4] = test system: NS5A chimeric genotype 2a JFH-1 replicon with genotype 2a J6 strain NS5A gene (M31 present); experiment: Replicon assay, genotype 2a J6 NS5A chimera; format: cell-based, HCV
Method: as §1, §2

[5] = test system: NS5A chimeric genotype 2a JFH-1 replicon with genotype 2b MD2b-1 strain NS5A gene (M31 present); experiment: Replicon assay, genotype 2b NS5A chimera; format: cell-based, HCV
Method: as §1, §2

[6] = test system: NS5A chimeric genotype 1b Con1 replicon with genotype 3a S52 strain NS5A gene; experiment: Replicon assay, genotype 3a NS5A chimera; format: cell-based, HCV
[7] = test system: NS5A chimeric genotype 1b Con1 replicon with genotype 4a ED43 strain NS5A gene; experiment: Replicon assay, genotype 4a NS5A chimera; format: cell-based, HCV
[8] = Hepatitis C virus, 72 h, activity range
[9] = Hepatitis C virus, read-out: 2a JFH (nM), genotype 2a JFH-1 replicon (L31 in NS5A), stable cells
[10] = Hepatitis C virus, read-out: 2a JFH, stable 2a JFH-1 Rluc replicon cells, L31 in NS5A, activity range
[11] = Hepatitis C virus, read-out: 2a J6 (t) (nM), genotype 2a J6 NS5A chimeric replicon (M31), transiently transfected (t) into Huh-Lunet cells
[12] = Hepatitis C virus, read-out: 2a J6 (t), transiently transfected (t) into Huh-Lunet cells, activity range
[13] = Hepatitis C virus, 2BS, read-out: 2b (s), stably replicating replicon cells (s), activity range
[14] = Hepatitis C virus, read-out: 2b (s) (nM), genotype 2b MD2b-1 NS5A chimeric replicon (M31), stably replicating replicon cells (s)
[15] = Hepatitis C virus, read-out: 3a (s) (nM), genotype 3a NS5A chimeric replicon, stable replicon cells (s)
[16] = Hepatitis C virus, read-out: 3a (s), (s), activity range
[17] = Hepatitis C virus, read-out: 4a (s) (nM), genotype 4a NS5A chimeric replicon, stable replicon cells (s)
[18] = Hepatitis C virus, read-out: 4a (s), (s), activity range

| Structure (SMILES) | EC50 ([1]; Hepatitis C virus, 72 h) [nM] | EC50 ([2]; Hepatitis C virus, 72 h) [nM] | EC50 [2, 8] [nM] | EC50 [3, 9] [nM] | EC50 [3, 10] [nM] | EC50 [4, 11] [nM] | EC50 [4, 12] [nM] | EC50 [5, 13] [nM] | EC50 [5, 14] [nM] | EC50 [6, 15] [nM] | EC50 [6, 16] [nM] | EC50 [7, 17] [nM] | EC50 [7, 18] [nM] | further results |
| --- | --- | --- | --- | --- | --- | --- | --- | --- | --- | --- | --- | --- | --- | --- |
| COC(=O)N[C@H](C(=O)N1[C@@H](C)CC[C@H]1c1nc2ccc3cc4c(cc3c2[nH]1)OCc1cc(-c2cnc([C@@H]3[C@@H]5C[C@@H]5CN3C(=O)[C@@H](NC(=O)OC)[C@@H](C)OC)[nH]2)ccc1-4)C(C)C [HP] | 0.026 | 0.019 | < 0.1 | 0.014 | < 0.1 | 0.22 | 0.1 to 0.999 | 1 to 44 | 1.02 | 0.079 | < 0.1 | 0.023 | < 0.1 | – |
| COC[C@H]1C[C@@H](c2nc(C3CC3)c(-c3ccc4c(c3)COc3cc5c(ccc6nc([C@@H]7CC[C@H](C)N7C(=O)[C@@H](NC(=O)OC)C(C)C)[nH]c65)cc3-4)[nH]2)N(C(=O)[C@H](NC(=O)OC)c2ccccc2)C1 [FV, Methyl {(1R)-2-[(2S,4S)-2-(4-cyclopropyl-5-{2-[(2S,5S)-1-{(2S)-2-[(methoxycarbonyl)amino]-3-methylbutanoyl}-5-methylpyrrolidin-2-yl]-1,11-dihydroisochromeno[4′,3′:6,7]naphtho[1,2-d]imidazol-9-yl}-1H-imidazol-2-yl)-4-(methoxymethyl)pyrrolidin-1-yl]-2-oxo-1-phenylethyl}carbamate] | – | – | – | – | – | – | – | – | – | – | – | – | – | EC50 [1]: 0.036 nM; EC50 ([2]; 72 hours): 0.023 nM; EC50 ([2]; 72 hours, activity range): < 0.1 nM; EC50 ([3]; read-out: 2a JFH, genotype 2a JFH-1 replicon (L31 in NS5A), stable cells): 0.111 nM; EC50 ([3]; read-out: 2a JFH, stable 2a JFH-1 Rluc replicon cells, L31 in NS5A, activity range): 0.1 to 0.999 nM; EC50 ([4]; read-out: 2a J6 (t), genotype 2a J6 NS5A chimeric replicon (M31), transiently transfected (t) into Huh-Lunet cells): 3.78 nM; EC50 ([4]; read-out: 2a J6 (t), transiently transfected (t) into Huh-Lunet cells, activity range): 1 to 44 nM; EC50 ([5]; Hepatitis C virus, read-out: 2b (t) (nM), genotype 2b MD2b-1 NS5A chimeric replicon (M31), transiently transfected (t)): 0.772 nM; EC50 ([5]; Hepatitis C virus, read-out: 2b (t), transiently transfected (t) into Huh-Lunet cells, activity range): 0.1 to 0.999 nM; EC50 ([5]; read-out: 2b (s), genotype 2b MD2b-1 NS5A chimeric replicon (M31), stably replicating replicon cells (s)): 2.55 nM; EC50 ([5]; read-out: 2b (s), stably replicating replicon cells (s), activity range): 1 to 44 nM; EC50 ([6]; read-out: 3a (s), (s), activity range): 1 to 44 nM; EC50 ([6]; read-out: 3a (s), genotype 3a NS5A chimeric replicon, stable replicon cells (s)): 5.25 nM; EC50 ([7]; read-out: 4a (s), (s), activity range): < 0.1 nM; EC50 ([7]; read-out: 4a (s), genotype 4a NS5A chimeric replicon, stable replicon cells (s)): 0.029 nM |
| CC[C@H]1C[C@@H](c2nc3ccc4cc5c(cc4c3[nH]2)OCc2cc(-c3cnc([C@@H]4CC[C@H](C)N4C(=O)[C@@H](NC(=O)OC)C(C)C)[nH]3)ccc2-5)N(C(=O)[C@@H](NC(=O)OC)[C@@H](C)OC)C1 [GU] | 0.022 | 0.014 | < 0.1 | 0.014 | < 0.1 | 0.075 | < 0.1 | 0.1 to 0.999 | 0.728 | 0.152 | 0.1 to 0.999 | 0.026 | < 0.1 | – |
| COC(=O)N[C@H](C(=O)N1[C@@H](C)CC[C@H]1c1nc2ccc3cc4c(cc3c2[nH]1)OCc1cc(-c2cnc([C@@H]3C[C@@H]5CCC[C@@H]5N3C(=O)[C@@H](NC(=O)OC)C3CCOCC3)[nH]2)ccc1-4)C(C)C [IB] | 0.032 | 0.021 | < 0.1 | 0.027 | < 0.1 | 0.05 | < 0.1 | 0.1 to 0.999 | 0.129 | 0.077 | < 0.1 | 0.026 | < 0.1 | – |
| COC(=O)N[C@H](C(=O)N1C(c2ncc(-c3ccc4c(c3)COc3cc5c(ccc6nc(C7C[C@H](C)CN7C(=O)[C@@H](NC(=O)OC)C(C)(C)C)[nH]c65)cc3-4)[nH]2)CC[C@@H]1C)C(C)C (stereo partly shown) [HN] | 0.012 | 0.01 | < 0.1 | 0.018 | < 0.1 | 1.1 | 1 to 44 | 1 to 44 | 2.86 | 0.282 | 0.1 to 0.999 | 0.018 | < 0.1 | – |
| COC(=O)N[C@H](C(=O)N1[C@@H](C)CC[C@H]1c1ncc(-c2ccc3c(c2)COc2cc4c(ccc5nc([C@@H]6CC[C@H](C(C)C)N6C(=O)[C@@H](NC(=O)OC)C6CCOCC6)[nH]c54)cc2-3)[nH]1)C(C)C [ID] | 0.038 | 0.035 | < 0.1 | 0.051 | < 0.1 | 0.953 | 0.1 to 0.999 | 1 to 44 | 1.81 | 0.801 | 0.1 to 0.999 | 0.026 | < 0.1 | – |
| COC(=O)N[C@H](C(=O)N1[C@@H](C)CC[C@H]1c1ncc(-c2ccc3c(c2)COc2cc4c(ccc5nc([C@@H]6CC[C@H](C)N6C(=O)[C@@H](NC(=O)OC)C6CCCCC6)[nH]c54)cc2-3)[nH]1)C(C)C [HE] | 0.02 | 0.011 | < 0.1 | 0.017 | < 0.1 | 0.677 | 0.1 to 0.999 | 1 to 44 | 1.59 | 0.074 | < 0.1 | 0.014 | < 0.1 | – |
| COC(=O)N[C@H](C(=O)N1[C@@H](C)CC[C@H]1c1nc2ccc3cc4c(cc3c2[nH]1)OCc1cc(-c2cnc([C@@H]3C[C@H](F)CN3C(=O)[C@@H](NC(=O)OC)C3CCOCC3)[nH]2)ccc1-4)C(C)C [HT] | 0.11 | 0.07 | < 0.1 | 0.051 | < 0.1 | 0.778 | 0.1 to 0.999 | 1 to 44 | 1.35 | 0.075 | < 0.1 | 0.03 | < 0.1 | – |
